These are literature values, as cited in publication PMC4177305 (ChemMedChem, 2014).

The conditions of data set [1]: in humans.
For another data set, the target named is human serum albumin (Homo sapiens, UniProt P02768). The following applies: reported affinity of MS-325 to human serum albumin.
For data set [2], the system named is human serum albumin (HSA). The following applies: displaces site II ligands rather than site I ligands.

Each structure is given as a SMILES string.

Chain of human serum albumin (P02768 25-609): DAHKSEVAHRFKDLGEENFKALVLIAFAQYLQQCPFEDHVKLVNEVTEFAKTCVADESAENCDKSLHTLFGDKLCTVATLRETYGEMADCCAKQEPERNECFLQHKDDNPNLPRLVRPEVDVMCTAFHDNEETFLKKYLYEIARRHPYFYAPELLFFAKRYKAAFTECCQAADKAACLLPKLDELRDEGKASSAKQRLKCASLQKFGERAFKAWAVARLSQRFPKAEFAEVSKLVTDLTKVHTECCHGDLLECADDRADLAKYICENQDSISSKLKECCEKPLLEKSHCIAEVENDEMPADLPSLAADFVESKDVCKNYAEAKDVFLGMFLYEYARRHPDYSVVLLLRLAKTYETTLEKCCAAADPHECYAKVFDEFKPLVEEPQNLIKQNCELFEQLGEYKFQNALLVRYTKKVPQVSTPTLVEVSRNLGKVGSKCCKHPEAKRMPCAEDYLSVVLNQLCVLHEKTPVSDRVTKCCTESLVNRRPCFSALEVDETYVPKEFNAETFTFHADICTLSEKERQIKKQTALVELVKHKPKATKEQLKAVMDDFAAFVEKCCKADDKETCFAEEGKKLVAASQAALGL

Regarding `O=C([O-])CN(CCN(CC(=O)[O-])CC(COP(=O)([O-])OC1CCC(c2ccccc2)(c2ccccc2)CC1)N(CC(=O)[O-])CC(=O)[O-])CC(=O)[O-].[Gd+3].[Na+].[Na+].[Na+]` (stereo not drawn) [MS-325, gadofosveset trisodium], the intravascular half-life in data set [1] was 18.5 ± 3 h. Besides, the Kd at human serum albumin is 164 µM. In data set [2], the albumin binding site entry is reported as “binds primarily to site II”.

By Kd is commonly meant the free concentration of one partner at which half of the binding sites on the other are occupied at equilibrium, for simple one-to-one binding.
